≈ marks a conversion by molar mass, not a printed value. Calls of active or inactive are those of the source. The rule behind the calls is not given here.
Each molecule was assayed on Measles morbillivirus (assay: Antiviral activity against Measles virus expressing firefly luciferase rMV2/Luc infected in human HEK293 cells assessed as bioluminescence level after 6 mins by luminometry). Details: not given.
Assay type: functional
`CCc1cnc(-n2nc(OC(C)C)c(Oc3cc(F)ccc3F)c2C)nc1` gave a pMIC50 of 7.3.
Work on `CCOc1nn(-c2ncc(CC)cn2)c(C)c1Oc1ccccc1` yielded a pMIC50 of 6.2.
Work on `CCCc1cnc(-n2nc(OC(C)C)c(Oc3c(F)cccc3F)c2C)nc1O` yielded a pMIC50 of 7.2.
`CCC(CC)Oc1nn(-c2ncc(C3CC3)cn2)c(C)c1Cc1ccccc1` gave a pMIC50 of 8.8.
With `CCCCCc1cnc(-n2nc(OCC)c(Cc3ccccc3)c2C)nc1` the pMIC50 was under 5.
Work on `CCc1cnc(-n2nc(OC(C)C)c(Cc3cccc(F)c3)c2C)nc1` yielded a pMIC50 of 8.2.
Work on `CCOc1nn(-c2nccc(C)n2)c(C)c1Cc1ccccc1` yielded a pMIC50 of 6.1.
With `CCOc1nn(-c2ncc(OC)cn2)c(C)c1Cc1ccccc1` the pMIC50 was 6.2.
For `Cc1c(Oc2c(F)cccc2F)c(OC(C)C)nn1-c1ncccn1`, the pMIC50 was 5.6.
Work on `CCOc1nn(-c2ncc(CC)cn2)c(C)c1Oc1cc(Cl)cc(Cl)c1` yielded a pMIC50 of 5.9.
With `CCOc1nn(-c2ncc(CC)cn2)c(C)c1Oc1cccc(C(F)(F)F)c1` the pMIC50 was 7.3.
`Cc1cnc(-n2nc(OC(C)C)c(Oc3c(F)cccc3F)c2C)nc1` gave a pMIC50 of 7.9.
Work on `CCc1cnc(-n2nc(OC(C)C)c(Oc3ccc(F)cc3F)c2C)nc1` yielded a pMIC50 of 7.9.
`CCc1cnc(-n2nc(CC(C)C)c(Cc3ccccc3)c2C)nc1` gave a pMIC50 of 7.5.
`CCOc1nn(-c2ncc(CC)cn2)c(C)c1-c1ccccc1` gave a pMIC50 of 5.4.
`CCc1cnc(-n2nc(OC(C)C)c(Cc3ccc(F)cc3)c2C)nc1` was tested, and the pMIC50 was 7.4.
With `CCOc1nn(-c2ncc(CC)cn2)c(C)c1Oc1cc(Cl)ccc1Cl` the pMIC50 was 7.6.
In the case of `CCc1cnc(-n2nc(OCCOCc3ccccc3)c(Cc3ccccc3)c2C)nc1`, the pMIC50 is reported as 7.3.
`CCc1cnc(-n2nc(OC(C)C)c(Oc3cccc(F)c3)c2C)nc1` gave a pMIC50 of 6.6.
`CCC(C)Oc1nn(-c2ncc(C3CC3)cn2)c(C)c1Cc1ccccc1` (centres undefined) showed a pMIC50 of 8.7.
Work on `CCCc1cnc(-n2nc(OC(C)C)c(Oc3c(F)cccc3F)c2C)nc1` yielded a pMIC50 of 8.5.
With `CCOc1nn(-c2ncc(CC)cn2)c(C)c1Sc1ccccc1` the pMIC50 was 6.9.
Molecule `Cc1c(Cc2ccccc2F)c(OC(C)C)nn1-c1ncc(C2CC2)cn1` has a pMIC50 of 8.9.
For `Cc1nn(-c2ncc(C3CC3)cn2)c(OC(C)C)c1Cc1ccccc1`, the pMIC50 was 6.8.
For `Cc1c(Oc2c(F)cccc2F)c(OC(C)C)nn1-c1ncc(Br)cn1`, the pMIC50 was 7.9.
`CCc1cnc(-n2nc(OC(C)C)c(Oc3cccc(F)c3F)c2C)nc1` showed a pMIC50 of 7.2.
`CCN(CC)Cc1c(Cc2ccccc2)c(OC(C)C)nn1-c1ncc(C2CC2)cn1` was tested, and the pMIC50 was 5.1.
With `CCc1cnc(-n2nc(O)c(Cc3ccccc3)c2C)nc1` the pMIC50 was 6.3.
Work on `CCc1cnc(-n2nc(OC(C)C)c(Cc3ccccc3)c2C)nc1` yielded a pMIC50 of 8.4.
`CCc1cnc(-n2nc(OCCCN(C)C)c(Cc3ccccc3)c2C)nc1` gave a pMIC50 of 6.1.
`C/C(O)=C(\C#N)C(=O)Nc1ccc(C(F)(F)F)cc1` [TERIFLUNOMIDE] was tested, and the pMIC50 was 5.3.
In the case of `CCOc1nn(-c2ccc(C)cn2)c(C)c1Cc1ccccc1`, the pMIC50 is reported as 6.2.
`COc1cnc(-n2nc(OC(C)C)c(Oc3c(F)cccc3F)c2C)nc1` gave a pMIC50 of 7.3.
`CCc1ccc(-n2nc(OC(C)C)c(Cc3ccccc3)c2C)cc1` showed a pMIC50 of 6.2.
`CCOc1nn(-c2ncc(C)cn2)c(C)c1Cc1ccccc1` was tested, and the pMIC50 was 7.5.
`Cc1c(Cc2ccccc2)c(O)nn1-c1ncc(C2CC2)cn1` was tested, and the pMIC50 was 5.6.
`Cc1c(Oc2c(F)cccc2F)c(OC(C)C)nn1-c1ncc(C2CC2)cn1` gave a pMIC50 of 8.9.
In the case of `Cc1c(Oc2c(F)cccc2F)c(OC(C)C)nn1-c1ncc(F)cn1`, the pMIC50 is reported as 6.6.
`CCOc1nn(-c2ncc(CC)cn2)c(C)c1Oc1ccccc1C(F)(F)F` gave a pMIC50 of 6.2.
`Cc1c(Oc2c(F)cccc2F)c(OC(C)C)nn1-c1nccc(O)n1` showed a pMIC50 of under 5.
Molecule `CCOc1nn(-c2ncc(CC)cn2)c(C)c1Oc1ccccc1F` has a pMIC50 of 7.2.
`CCc1cnc(-n2nc(OC(C)C)c(Oc3ccccc3F)c2C)nc1` was tested, and the pMIC50 was 8.1.
`Cc1c(C(O)c2ccccc2)c(OC(C)C)nn1-c1ncc(C2CC2)cn1` (centres undefined) was tested, and the pMIC50 was 8.8.
Work on `CCOc1nn(-c2ncccn2)c(C)c1Cc1ccccc1` yielded a pMIC50 of 5.5.
Work on `CCOc1nn(-c2ncc(C3CC3)cn2)c(C)c1Cc1ccccc1` yielded a pMIC50 of 7.6.
`COCc1c(Cc2ccccc2)c(OC(C)C)nn1-c1ncc(C2CC2)cn1` was tested, and the pMIC50 was 7.2.
Work on `CCc1cnc(-n2nc(OCCO)c(Cc3ccccc3)c2C)nc1` yielded a pMIC50 of 6.6.
In the case of `CCOc1nn(-c2ncc(CC)cn2)c(C)c1Oc1ccccc1Br`, the pMIC50 is reported as 6.9.
`CCc1cnc(-n2nc(OC(C)C)c(Cc3ccccc3F)c2C)nc1` was tested, and the pMIC50 was 8.8.
Work on `CCc1cnc(-n2nc(OC(C)C)c(Oc3c(F)cccc3F)c2C)nc1O` yielded a pMIC50 of 7.8.
Work on `Cc1c(Cc2ccccc2)c(OC(C)C)nn1-c1ncc(C2CC2)cn1` yielded a pMIC50 of 8.2.
`CCOc1nn(-c2ncc(CC)cn2)c(C)c1I` showed a pMIC50 of 4.9.
Work on `CCOc1nn(-c2ncc(CC)cn2)c(C)c1Cc1ccccc1` yielded a pMIC50 of 7.7.
Molecule `CCOc1nn(-c2ncc(CC)cn2)c(C)c1Oc1cccc(Cl)c1Cl` has a pMIC50 of 6.8.
In the case of `COc1nn(-c2ncc(C3CC3)cn2)c(C)c1Cc1ccccc1`, the pMIC50 is reported as 7.3.
`CCc1cnc(-n2nc(OC(C)C)c(Oc3c(F)cccc3F)c2C)nc1` showed a pMIC50 of 9.1.
`CCc1cnc(-n2nc(OC(C)C)c(Oc3ccc(F)cc3)c2C)nc1` showed a pMIC50 of 6.5.
For `Cc1cnc(-n2nc(OC(C)C)c(Oc3c(F)cccc3F)c2C)nc1O`, the pMIC50 was 6.8.
`CCOc1nn(-c2ncc(CC)cn2)c(C)c1Oc1ccccc1Cl` showed a pMIC50 of 6.9.
`CCOc1nn(-c2ncc(CC)c(C)n2)c(C)c1Cc1ccccc1` was tested, and the pMIC50 was 7.4.
Work on `CCOc1nn(-c2ncc(CC)cn2)c(C)c1C(=O)c1ccccc1` yielded a pMIC50 of 6.2.
`CCOc1nn(-c2ncc(CC)cn2)c(C)c1Oc1ccc(C(F)(F)F)cc1` was tested, and the pMIC50 was 5.2.
For `CC(C)Oc1nn(-c2ncc(C3CC3)cn2)c(CN(C)C)c1Cc1ccccc1`, the pMIC50 was under 5.
`CCOc1nn(-c2ncc(Br)cn2)c(C)c1Cc1ccccc1` gave a pMIC50 of 7.
`CCCc1cnc(-n2nc(OCC)c(Cc3ccccc3)c2C)nc1` showed a pMIC50 of 7.5.

Same assay, conditions: Measles morbillivirus, 0.1 h
With `CCOc1nn(-c2ccc(C)cn2)c(C)c1Cc1ccccc1` the MIC50 was 0.65 µM (≈ 0.2 µg/mL).
`CCOc1nn(-c2ncccn2)c(C)c1Cc1ccccc1` was tested, and the MIC50 was 2.72 µM (≈ 0.801 µg/mL).

Each molecule was assayed on HEK293 (assay: Cytotoxicity against human HEK293 cells assessed as cell viability after 24 hrs by CellTiter-Glo assay). Details: hek293, 24 h.
Assay type: cell-based
With `CCOc1nn(-c2ccc(C)cn2)c(C)c1Cc1ccccc1` the Activity was “Non-toxic”.
`CCOc1nn(-c2ncccn2)c(C)c1Cc1ccccc1` was tested, and the Activity was “Non-toxic”.

What follows are molecules tested on Measles morbillivirus (assay: Antiviral activity against measles virus expressing firefly luciferase rMV2/Luc infected in human HEK293 cells assessed as bioluminescence level at 16 to 195 nM after 6 mins by luminometry in presence of uridine). Details: not given.
Assay type: functional, organism-based
With `CCOc1nn(-c2ncc(CC)cn2)c(C)c1Cc1ccccc1` the Activity was “inactive”.

What follows are molecules tested on Measles morbillivirus (assay: Antiviral activity against measles virus expressing firefly luciferase rMV2/Luc infected in human HEK293 cells assessed as bioluminescence level at 16 to 195 nM after 6 mins by luminometry in presence of orotic acid). Details: not given.
Assay type: functional, organism-based
`CCOc1nn(-c2ncc(CC)cn2)c(C)c1Cc1ccccc1` was tested, and the Activity was “inactive”.

These molecules were tested on Measles morbillivirus (assay: Antiviral activity against measles virus expressing firefly luciferase rMV2/Luc infected in human HEK293 cells assessed as bioluminescence level at 16 to 195 nM after 6 mins by luminometry in presence of dihydroorotic acid). Details: not given.
Assay type: functional, organism-based
`CCOc1nn(-c2ncc(CC)cn2)c(C)c1Cc1ccccc1` was tested, and the Activity was “Active”.

Each molecule was assayed against Dihydroorotate dehydrogenase (quinone), mitochondrial (Homo sapiens, UniProt Q02127) (assay: Inhibition of His-tagged human DHODH assessed as reduction of DCIP by spectrophotometry). Details: not given.
Chain of Dihydroorotate dehydrogenase (quinone), mitochondrial (Q02127 whole entry): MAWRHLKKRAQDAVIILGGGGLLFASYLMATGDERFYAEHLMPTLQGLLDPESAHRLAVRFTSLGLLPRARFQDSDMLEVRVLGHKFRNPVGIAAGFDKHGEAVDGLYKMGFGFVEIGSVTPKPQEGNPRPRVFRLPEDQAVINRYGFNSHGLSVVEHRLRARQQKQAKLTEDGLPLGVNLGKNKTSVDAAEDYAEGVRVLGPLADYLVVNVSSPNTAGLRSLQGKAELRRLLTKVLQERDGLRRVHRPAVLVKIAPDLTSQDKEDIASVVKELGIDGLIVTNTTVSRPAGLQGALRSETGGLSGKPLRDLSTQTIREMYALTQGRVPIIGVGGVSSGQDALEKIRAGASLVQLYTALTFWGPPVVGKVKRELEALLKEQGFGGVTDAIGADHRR
With `Cc1c(Cc2ccccc2F)c(OC(C)C)nn1-c1ncc(C2CC2)cn1` the IC50 was 12.6 nM.
In the case of `CCOc1nn(-c2ncc(CC)cn2)c(C)c1Oc1ccccc1Br`, the IC50 is reported as 126 nM.

From ChEMBL document CHEMBL3407366, “Original 2-(3-alkoxy-1H-pyrazol-1-yl)pyrimidine derivatives as inhibitors of human dihydroorotate dehydrogenase (DHODH)” (J Med Chem, 2015)
